Source: ChEMBL document CHEMBL4004877, “Synthesis and biological evaluation of chalcone, dihydrochalcone, and 1,3-diarylpropane analogs as anti-inflammatory agents” (Bioorg Med Chem Lett, 2017)
≈ marks a conversion by molar mass, not a printed value. Calls of active or inactive are those of the source. The calls are words filed in the database; no cut-off is given here.

Key:
[1] = tested on: RAW264.7; experiment: Antiinflammatory activity in mouse RAW264.7 cells assessed as inhibition of LPS induced iNOS-dependent nitric oxide production at 1.25 ug/ml after 24 hrs by Griess assay relative to control; format: functional; details: RAW264.7, 24 h
[2] = tested on: RAW264.7; experiment: Antiinflammatory activity in mouse RAW264.7 cells assessed as inhibition of LPS induced iNOS-dependent nitric oxide production at 2.5 ug/ml after 24 hrs by Griess assay relative to control; format: functional; details: RAW264.7, 24 h
[3] = tested on: RAW264.7; experiment: Antiinflammatory activity in mouse RAW264.7 cells assessed as inhibition of LPS induced iNOS-dependent nitric oxide production at 5 ug/ml after 24 hrs by Griess assay relative to control; format: functional; details: RAW264.7, 24 h
[4] = tested on: RAW264.7; experiment: Antiinflammatory activity in mouse RAW264.7 cells assessed as inhibition of LPS induced iNOS-dependent nitric oxide production at 10 ug/ml after 24 hrs by Griess assay relative to control; format: functional; details: RAW264.7, 24 h
[5] = tested on: RAW264.7; experiment: Antiinflammatory activity in mouse RAW264.7 cells assessed as inhibition of LPS induced iNOS-dependent nitric oxide production after 24 hrs by Griess assay; format: functional, cell-based; details: RAW264.7, 24 h
[6] = Cytotoxicity against LPS-stimulated mouse RAW264.7 cells assessed as cell viability at 1.25 ug/ml after 24 hrs by MTT assay relative to control; format: cell-based; details: LPS-stimulated RAW264.7 cells, read-out: Activity
[7] = Cytotoxicity against LPS-stimulated mouse RAW264.7 cells assessed as cell viability at 2.5 ug/ml after 24 hrs by MTT assay relative to control; format: cell-based; details: LPS-stimulated RAW264.7 cells, read-out: Activity
[8] = Cytotoxicity against LPS-stimulated mouse RAW264.7 cells assessed as cell viability at 5 ug/ml after 24 hrs by MTT assay relative to control; format: cell-based; details: LPS-stimulated RAW264.7 cells, read-out: Activity
[9] = Cytotoxicity against LPS-stimulated mouse RAW264.7 cells assessed as cell viability at 10 ug/ml after 24 hrs by MTT assay relative to control; format: cell-based; details: LPS-stimulated RAW264.7 cells, read-out: Activity
[10] = tested on: RAW264.7; experiment: Inhibition of iNOS expression in LPS-stimulated mouse RAW264.7 cells after 24 hrs by Western blot method; format: functional, cell-based
[11] = tested on: RAW264.7; experiment: Inhibition of COX2 expression in LPS-stimulated mouse RAW264.7 cells at 2.5 to 10 ug/ml after 24 hrs by Western blot method; format: functional, cell-based
[12] = tested on: RAW264.7; experiment: Inhibition of IkappaB-alpha expression in LPS-stimulated mouse RAW264.7 cells at 2.5 to 10 ug/ml preincubated for 1 hr followed by LPS challenge measured after 24 hrs by Western blot method; format: functional, cell-based
[13] = species on record: Mus musculus; experiment: Inhibition of ERK phosphorylation in LPS-stimulated mouse RAW264.7 cells at 2.5 to 10 ug/ml preincubated for 1 hr followed by LPS challenge measured after 24 hrs by Western blot method
[14] = species on record: Mus musculus; experiment: Inhibition of JNK phosphorylation in LPS-stimulated mouse RAW264.7 cells at 2.5 to 10 ug/ml preincubated for 1 hr followed by LPS challenge measured after 24 hrs by Western blot method
[15] = biological target: MAP kinase p38 (Mus musculus) (UniProt P47811+O08911+Q9WUI1+Q9Z1B7); experiment: Inhibition of p38 phosphorylation in LPS-stimulated mouse RAW264.7 cells at 2.5 to 10 ug/ml preincubated for 1 hr followed by LPS challenge measured after 24 hrs by Western blot method
[16] = tested on: RAW264.7; experiment: Effect on non-phosphorylated ERK in LPS-stimulated mouse RAW264.7 cells at 2.5 to 10 ug/ml preincubated for 1 hr followed by LPS challenge measured after 24 hrs by Western blot method; format: cell-based; details: raw264.7, 24 h
[17] = tested on: RAW264.7; experiment: Effect on non-phosphorylated JNK in LPS-stimulated mouse RAW264.7 cells at 2.5 to 10 ug/ml preincubated for 1 hr followed by LPS challenge measured after 24 hrs by Western blot method; format: cell-based; details: raw264.7, 24 h
[18] = tested on: RAW264.7; experiment: Effect on non-phosphorylated p38 in LPS-stimulated mouse RAW264.7 cells at 2.5 to 10 ug/ml preincubated for 1 hr followed by LPS challenge measured after 24 hrs by Western blot method; format: cell-based; details: raw264.7, 24 h

Row | Compound | inhibition at 1.25 µg/mL [1] [%] | inhibition at 2.5 µg/mL [2] [%] | inhibition at 5 µg/mL [3] [%] | inhibition at 10 µg/mL [4] [%] | IC50 [5] [µg/mL] | viability at 24 h, 1.25 ug/ml [6] [%] | viability at 24 h, 2.5 ug/ml [7] [%] | viability at 24 h, 5 ug/ml [8] [%] | viability at 24 h, 10 ug/ml [9] [%] | inhibition [10] | inhibition [11] | inhibition [12] | inhibition [13] | inhibition [14] | inhibition [15] | Activity [16] | Activity [17] | Activity [18]
1 | COc1ccc(CCCc2ccc(OC)c(OC)c2)c(O)c1 | 29.6 | 60.5 | 69.2 | 75.5 | 1.97 (≈ 6.52 µM) | 97.9 | 91.7 | 88.9 | 44.5 | Dose-dependent effect | Active | inactive | Active | Active | Active | Non-Toxic | Non-Toxic | Non-Toxic
2 | COc1ccc(CCCc2cccc(O)c2)cc1 | 22.2 | 20.5 | 40.1 | 55.9 | 7.72 (≈ 31.9 µM) | 99.9 | 99.2 | 94.1 | 76.2 |  |  |  |  |  |  |  |  | 
3 | COc1ccc(CCCc2ccc(OC)cc2O)cc1 | 25.7 | 30.5 | 37.8 | 72.5 | 6.37 (≈ 23.4 µM) | 98.9 | 96.8 | 94.6 | 73.8 |  |  |  |  |  |  |  |  | 
4 | COc1ccc(C(=O)/C=C/c2ccc(OC)c(OC)c2)c(O)c1 | 9.1 | 3 | 49.6 | 77.3 | 5.05 (≈ 16.1 µM) | 99.7 | 92.6 | 73.9 | 70 |  |  |  |  |  |  |  |  | 
5 | COc1ccc(CCCc2ccc(O)c(OC)c2)cc1 | 35.9 | 42.9 | 49 | 89.8 | 5.08 (≈ 18.7 µM) | 99.2 | 97.8 | 96.4 | 66.3 |  |  |  |  |  |  |  |  | 
6 | COc1ccc(C(=O)/C=C/c2ccc(OC)cc2OC)c(O)c1 | 3.4 | 7.4 | 12.2 | 2.8 | > 10 | 98.7 | 90.3 | 87.3 | 68 |  |  |  |  |  |  |  |  | 
7 | COc1ccc(CCCc2cccc(O)c2)cc1OC | 13.9 | 5.4 | 15.4 | 44.7 | > 10 | 99.9 | 98.5 | 94.8 | 78.8 |  |  |  |  |  |  |  |  | 
8 | COc1ccc(OC)c(/C=C/C(=O)c2cccc(O)c2)c1 | 2.8 | 52.3 | 52.4 | 77.1 | 2.42 (≈ 8.51 µM) | 99 | 72.4 | 67.3 | 62.5 |  |  |  |  |  |  |  |  | 
9 | COc1ccc(C(=O)CCc2ccc(OC)c(OC)c2OC)c(O)c1 | 0.9 | 2.8 | 7.5 | 10.3 | > 10 | 101 | 94.4 | 94.8 | 94 |  |  |  |  |  |  |  |  | 
10 | COc1ccc(CCC(=O)c2ccc(OC)cc2O)cc1 | 7.8 | 10.5 | 14.5 | 25.9 | > 10 | 95.1 | 94.5 | 92.3 | 88 |  |  |  |  |  |  |  |  | 
11 | COc1ccc(C(=O)/C=C/c2cccc(OC)c2OC)c(O)c1 | 1.3 | 54.7 | 55.3 | 59.7 | 2.35 (≈ 7.48 µM) | 94.2 | 72.9 | 69.7 | 60.3 |  |  |  |  |  |  |  |  | 
